{"source": "patent US20260335299A1", "about": "“SUBSTITUTED OXOISOINDOLINYL PIPERIDINE-2,6-DIONE COMPOUND AS ANTICANCER AGENT” (BRISTOL-MYERS SQUIBB COMPANY, priority 2023, published 2026)", "key": {"IKZF3 Aiolos [1]": {"molecular_target": "T1, IKZF3 Aiolos (Homo sapiens, UniProt Q96SW2+Q9UKT9)", "T1 sequence (Q9UKT9 whole entry)": "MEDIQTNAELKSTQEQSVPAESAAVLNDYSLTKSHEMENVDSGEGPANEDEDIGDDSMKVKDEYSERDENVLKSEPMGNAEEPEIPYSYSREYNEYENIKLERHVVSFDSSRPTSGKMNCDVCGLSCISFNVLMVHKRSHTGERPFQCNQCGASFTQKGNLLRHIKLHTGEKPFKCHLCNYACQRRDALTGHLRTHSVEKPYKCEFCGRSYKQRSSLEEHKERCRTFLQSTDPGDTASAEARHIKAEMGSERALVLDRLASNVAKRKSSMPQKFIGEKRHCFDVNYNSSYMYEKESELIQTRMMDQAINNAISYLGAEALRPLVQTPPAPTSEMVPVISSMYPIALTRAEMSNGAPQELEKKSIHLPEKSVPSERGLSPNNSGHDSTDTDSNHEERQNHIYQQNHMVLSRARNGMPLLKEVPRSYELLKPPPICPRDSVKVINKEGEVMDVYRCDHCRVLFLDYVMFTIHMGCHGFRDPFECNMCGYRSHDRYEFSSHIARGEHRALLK", "T1 sequence (Q96SW2 whole entry)": "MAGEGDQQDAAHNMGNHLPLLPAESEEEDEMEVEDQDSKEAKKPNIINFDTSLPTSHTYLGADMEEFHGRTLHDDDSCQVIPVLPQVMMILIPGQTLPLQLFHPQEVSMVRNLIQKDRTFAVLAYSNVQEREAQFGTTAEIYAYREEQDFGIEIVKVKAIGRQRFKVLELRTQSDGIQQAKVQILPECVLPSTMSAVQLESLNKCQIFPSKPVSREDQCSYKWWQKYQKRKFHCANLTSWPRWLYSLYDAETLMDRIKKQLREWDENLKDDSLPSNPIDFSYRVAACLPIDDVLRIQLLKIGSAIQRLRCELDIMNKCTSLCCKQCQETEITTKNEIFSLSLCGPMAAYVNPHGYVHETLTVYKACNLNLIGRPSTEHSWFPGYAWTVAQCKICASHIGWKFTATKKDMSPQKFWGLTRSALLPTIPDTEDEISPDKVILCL", "T1 sequence (Q16531 whole entry partner)": "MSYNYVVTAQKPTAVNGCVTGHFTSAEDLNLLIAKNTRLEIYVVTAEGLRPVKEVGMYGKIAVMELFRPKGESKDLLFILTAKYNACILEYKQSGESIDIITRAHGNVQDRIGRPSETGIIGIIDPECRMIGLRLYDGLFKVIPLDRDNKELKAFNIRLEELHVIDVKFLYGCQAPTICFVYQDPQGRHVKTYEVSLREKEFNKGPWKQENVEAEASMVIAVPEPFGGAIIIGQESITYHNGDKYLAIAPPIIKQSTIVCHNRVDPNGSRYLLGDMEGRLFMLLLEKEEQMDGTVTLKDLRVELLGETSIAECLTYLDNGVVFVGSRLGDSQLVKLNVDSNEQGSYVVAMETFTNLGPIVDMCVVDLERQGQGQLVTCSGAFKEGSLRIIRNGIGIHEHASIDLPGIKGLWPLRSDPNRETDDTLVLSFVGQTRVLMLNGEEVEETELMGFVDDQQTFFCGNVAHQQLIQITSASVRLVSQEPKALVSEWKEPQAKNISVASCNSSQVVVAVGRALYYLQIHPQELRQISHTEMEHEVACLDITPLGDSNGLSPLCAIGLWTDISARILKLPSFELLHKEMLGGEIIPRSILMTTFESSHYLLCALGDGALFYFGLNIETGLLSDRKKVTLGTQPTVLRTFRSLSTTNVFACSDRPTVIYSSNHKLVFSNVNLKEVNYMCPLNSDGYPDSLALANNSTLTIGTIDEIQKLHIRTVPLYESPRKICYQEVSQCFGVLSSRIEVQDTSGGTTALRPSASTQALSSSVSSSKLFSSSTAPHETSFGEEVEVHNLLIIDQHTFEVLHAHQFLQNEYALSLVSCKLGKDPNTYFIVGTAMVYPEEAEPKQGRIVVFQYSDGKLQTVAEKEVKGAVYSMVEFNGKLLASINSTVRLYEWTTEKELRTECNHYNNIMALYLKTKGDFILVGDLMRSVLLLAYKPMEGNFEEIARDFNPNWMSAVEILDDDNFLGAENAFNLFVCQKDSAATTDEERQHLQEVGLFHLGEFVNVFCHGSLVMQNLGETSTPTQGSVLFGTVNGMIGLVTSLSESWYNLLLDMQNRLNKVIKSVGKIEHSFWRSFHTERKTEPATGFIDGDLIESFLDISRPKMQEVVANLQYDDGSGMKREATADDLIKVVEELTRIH", "experiment": "Jurkat Cellular Degradation Assay (Aiolos)", "assay_type": "cell-based", "parameters": "endogenous in cells; host or cells: Jurkat cells", "conditions": "Jurkat cells, 72 h; concentration reducing protein level by 50% compared to DMSO alone", "procedure": "(§1) Jurkat cells were plated at 80,000 cells/well in 40 μL RPMI+10% FBS in a 384-well cell culture plate prior to using acoustic dispensing technology for adding a compound of interest. Cell cultures were incubated for 72 h at 37° C. and 5% CO2. In order to facilitate analysis, cell cultures were spun down at 200 rpm for 5 min and the supernatant was discarded. After shaking the plate to dislodge the cell pellet, cells were resuspended in 50 μL of Fixation Buffer (eBioscience FoxP3 buffer set 00-5523-00) for 60 min at room temperature. After centrifuging and discarding the supernatant, cells were permeabilized with 50 μL of Permeabilization buffer (eBioscience FoxP3 buffer set 00-5523-00) for 10 min at room temperature. Following permeabilization, cells were spun down and the supernatant was replaced with 20 μL fluorescently labelled antibodies against Helios, Ikaros and Aiolos or corresponding Isotype controls in 1× Permeabilization buffer (Ikaros-Alexa488 [Biolegend, Cat #368408, 1:50], Helios-PE [CST, Cat #29360, 1:50], Aiolos-Alexa647 [Biolegend, Cat #371106 Biolegend, 1:25]) and staining reactions were incubated for 1 h at room temperature while protected from light. Subsequently, 30 μL of 1× Permeabilization buffer was added prior to centrifuging the cells and discarding the supernatant. Stained cells were resuspended in 25 μL of flow cytometry staining buffer [PBS+0.2% bovine serum albumin (BSA)] and analyzed using an Intellicyt Ique Plus flow cytometer.\n(§2) Table A-1 lists the maximum observed degradation of the IKZF1 protein, IKZF2 protein, and IKZF3 protein as measured in the Jurkat Cellular Degradation assay. The results in Table A-I were rounded to two digits. In the Jurkat Cellular Degradation assay, a value of 100% indicated no detectable protein remaining or complete degradation of the protein; and a value of 0% indicated no detectable degradation of the protein by the test compound."}, "IKZF1 Ikaros [2]": {"molecular_target": "T2, IKZF1 Ikaros (Homo sapiens, UniProt Q13422+Q96SW2)", "T2 sequence (Q13422 whole entry)": "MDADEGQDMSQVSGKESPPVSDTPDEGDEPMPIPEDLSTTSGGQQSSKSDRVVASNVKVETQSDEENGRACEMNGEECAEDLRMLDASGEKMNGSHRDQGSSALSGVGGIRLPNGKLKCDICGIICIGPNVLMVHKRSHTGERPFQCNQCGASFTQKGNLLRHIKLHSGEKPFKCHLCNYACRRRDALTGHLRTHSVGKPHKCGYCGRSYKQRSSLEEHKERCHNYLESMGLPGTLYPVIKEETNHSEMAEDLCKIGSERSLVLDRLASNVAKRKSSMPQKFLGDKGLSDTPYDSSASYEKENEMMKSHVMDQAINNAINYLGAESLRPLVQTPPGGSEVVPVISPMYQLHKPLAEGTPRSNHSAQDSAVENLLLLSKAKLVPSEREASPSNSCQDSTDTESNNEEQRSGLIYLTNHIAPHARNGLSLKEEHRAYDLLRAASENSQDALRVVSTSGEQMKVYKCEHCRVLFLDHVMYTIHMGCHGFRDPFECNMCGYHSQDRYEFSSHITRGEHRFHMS", "T2 sequence (Q96SW2 whole entry)": "as the sequence (Q96SW2 whole entry) above", "T2 sequence (Q16531 whole entry partner)": "as the sequence (Q16531 whole entry partner) above", "experiment": "Human Regulatory T Cell Degradation Assay (Ikaros)", "assay_type": "cell-based", "conditions": "human regulatory T cells, 20 h; concentration reducing protein level by 50% compared to DMSO alone", "procedure": "Cryopreserved human regulatory T cells were thawed in RPMI+10% FBS+20 ng/mL IL-2. After being spun at 1200 rpm for 5 mins, the cells were resuspended in RPMI+10% FBS+20 ng/ml and rested at 37° C. with 5% CO2 for 3 hours. The cells were then plated at 40,000 cells/well in 40 μL RPMI+10% FBS+20 ng/mL human IL-2 in a 384 well cell culture plate prior to using acoustic dispensing technology (ECHO 555) for adding compounds of interest. Cell cultures were incubated for 20 hours at 37° C. and 5% CO2. In order to facilitate analysis, cell cultures were spun down at 1200 rpm for 5 minutes and the supernatant was discarded using an EL406 plate washer. After washing three times with […] PBS, cell pellets were resuspended in 50 μL of […] viability staining solution (Life Technologies, Cat #L34975) and incubated for 30 minutes on ice protected from light. Cells were washed three times with 70 μL PBS+0.5% BSA using an EL406 plate washer. After shaking the plate to dislodge the cell pellet, cells were resuspended in 50 μL of Fixation Buffer (eBioScience FoxP3 buffer set 00-5523-00) for 60 minutes at room temperature. After centrifuging and discarding the supernatant, cells were permeabilized with 50 μL of permeabilization buffer (eBioScience FoxP3 buffer set 00-5523-00) for 10 minutes at room temperature. Following permeabilization, cells were spun down and the supernatant was replaced with 30 μL fluorescently labelled antibodies against the intracellular targets Helios (Helios-APC [BioLegend, Cat #137222, 1:50])]), Aiolos, and Ikaros 1× Permeabilization buffer and staining reactions were incubated for 1 hour at room temperature; protected from light. Subsequently, […] Permeabilization buffer was added prior to centrifuging the cells and discarding the supernatant. Stained cells were resuspended in 30 μL of flow cytometry staining buffer (PBS+0.5% BSA) and analyzed using an Intellicyt Ique Plus flow cytometer.\nas §2, with “B-1” for “A-1”, “protein and” for “protein,”, “IKZF2” for “IKZF2 protein, and IKZF3”, “Human Regulatory T Cell” for “Jurkat Cellular”, “B-1” for “A-I”"}, "IKZF1 Ikaros [3]": {"molecular_target": "T2, IKZF1 Ikaros", "experiment": "Jurkat Cellular Degradation Assay (Ikaros)", "assay_type": "cell-based", "parameters": "endogenous in cells; host or cells: Jurkat cells", "conditions": "Jurkat cells, 72 h; concentration reducing protein level by 50% compared to DMSO alone", "procedure": "as §1, §2"}, "IKZF1 Ikaros [4]": {"molecular_target": "T2, IKZF1 Ikaros", "experiment": "Human CD8+ T Cell Reprogramming (Degradation) Assay (Ikaros)", "assay_type": "cell-based", "parameters": "Cryopreserved healthy donor human peripheral blood mononuclear cells (PBMC); endogenous in cells; host or cells: CD8+ T cells within healthy donor human PBMC", "conditions": "CD8+ T cells, human PBMC, 24 h; concentration reducing protein level by 50% compared to DMSO alone", "procedure": "(§3) Cryopreserved healthy donor human peripheral blood mononuclear cells (PBMC) from healthy donors were thawed and seeded at 500,000 cells/well of 96-well round bottom plates in RPMI 1640 media (Gibco) supplemented with 10% FBS, Pen/Strep (Gibco), MEM-NEAA (Gibco), and sodium pyruvate (Gibco). Cells were treated with titrated doses of compound for 24 hours at 37° C., 5% CO2 before analyzing by flow cytometry.\n(§4) For flow cytometry staining, cells were washed twice with flow cytometry staining buffer (Thermo Fisher) and incubated in Human Tru-stain Fc block (Biolegend) for 10 minutes before adding eFluor780 viability dye (Thermo Fisher) and surface marker antibody cocktail containing LD-eFluor780, CD3-BUV-395, CD4-BUV805, CD8-FITC, and CD25-BV605 for 30 minutes at 4° C. Cells were then fixed and permeabilized by incubation with permeabilization buffer (eBioscience FoxP3 buffer set 00-5523-00) for 30 minutes at 4° C. as per the kit manufacturer's instructions. Cells were washed twice with the Perm/Wash buffer supplied in the kit as per the manufacturer's instructions and incubated overnight at 4° C. with an intracellular antibody cocktail comprised of antibodies specific for the transcription factors (i.e., Foxp3-BV421, HELIOS-PE-Cy7, EOS-PE, IKAROS-PECF594, AIOLOS-AF647). Cells were washed twice with Perm/Wash buffer and resuspended in flow cytometry staining buffer (Thermo Fisher) prior to acquisition. Sample acquisition and analysis was performed using a BD LSRFortessa (BD Biosciences) flow cytometer. Single-stain controls for each fluorochrome were prepared using UltraComp eBead Compensation Beads (Thermo Fisher). Data were analyzed using FlowJo version 10 and GraphPad Prism Software.\nas §2, with “D-1” for “A-1”, “protein” for “protein, IKZF2 protein,”, “Human CD8^+ T Cell Reprogramming” for “Jurkat Cellular Degradation”, “D-1” for “A-I”"}, "IKZF3 Aiolos [5]": {"molecular_target": "T1, IKZF3 Aiolos", "experiment": "Human CD8+ T Cell Reprogramming (Degradation) Assay (Aiolos)", "assay_type": "cell-based", "parameters": "Cryopreserved healthy donor human peripheral blood mononuclear cells (PBMC); endogenous in cells; host or cells: CD8+ T cells within healthy donor human PBMC", "conditions": "CD8+ T cells, human PBMC, 24 h; concentration reducing protein level by 50% compared to DMSO alone", "procedure": "as §3, §4\nas §2, with “D-1” for “A-1”, “protein” for “protein, IKZF2 protein,”, “Human CD8^+ T Cell Reprogramming” for “Jurkat Cellular Degradation”, “D-1” for “A-I”"}, "solid tumors": {"test_system": "solid tumors", "conditions": "sometimes; patients with solid tumors / advanced malignancies; cited from earlier work"}}}
{"smiles": "O=C1CCC(N2Cc3c(ccc(-c4cc(CN5CC(c6ccccc6)C5)ccn4)c3F)C2=O)C(=O)N1", "note": "(stereo not shown) [Comparative Compound A, 3-(4-fluoro-1-oxo-5-(4-((3-phenylazetidin-1-yl)methyl)pyridin-2-yl)isoindolin-2-yl) piperidine-2,6-dione, reference compound]", "values": [{"measurement": "DC50", "setting": "IKZF3 Aiolos [1]", "value": "> 10", "unit": "µM"}, {"measurement": "DC50", "setting": "IKZF1 Ikaros [2]", "value": "> 10", "unit": "µM"}, {"measurement": "DC50", "setting": "IKZF1 Ikaros [3]", "value": "> 10", "unit": "µM"}, {"measurement": "DC50", "setting": "IKZF1 Ikaros [4]", "value": "> 1", "unit": "µM"}, {"measurement": "DC50", "setting": "IKZF3 Aiolos [5]", "value": "> 1", "unit": "µM"}]}
{"smiles": "Nc1nc(-c2ccc3c(c2)CN(C2CCC(=O)NC2=O)C3=O)ccc1CN1CC2(CCC2)C1", "note": "(stereo not shown) [Comparative Compound B, 3-(5-(5-((2-azaspiro[3.3]heptan-2-yl)methyl)-6-aminopyridin-2-yl)-1-oxoisoindolin-2-yl) piperidine-2,6-dione, reference compound]", "values": [{"measurement": "DC50", "setting": "IKZF3 Aiolos [1]", "value": "> 10", "unit": "µM"}, {"measurement": "DC50", "setting": "IKZF1 Ikaros [2]", "value": "> 10", "unit": "µM"}, {"measurement": "DC50", "setting": "IKZF1 Ikaros [3]", "value": "> 10", "unit": "µM"}, {"measurement": "DC50", "setting": "IKZF1 Ikaros [4]", "value": "> 1", "unit": "µM"}, {"measurement": "DC50", "setting": "IKZF3 Aiolos [5]", "value": "> 1", "unit": "µM"}]}
{"smiles": "Cc1nc2cccc(N)c2c(=O)n1C1CCC(=O)NC1=O", "note": "(stereo not shown) [avadomide]", "values": [{"measurement": "clinical response in patients with solid tumors", "setting": "solid tumors", "value": "modest responses of stable disease"}]}
{"smiles": "Nc1cccc2c1CN(C1CCC(=O)NC1=O)C2=O", "note": "(stereo not shown) [lenalidomide]", "values": [{"measurement": "clinical response in patients with solid tumors", "setting": "solid tumors", "value": "modest responses of stable disease"}]}
{"smiles": "Nc1cccc2c1C(=O)N(C1CCC(=O)NC1=O)C2=O", "note": "(stereo not shown) [pomalidomide]", "values": [{"measurement": "clinical response in patients with solid tumors", "setting": "solid tumors", "value": "modest responses of stable disease"}]}
